In US12103924B2, “Mitogen-activated protein kinase kinase (MEK) degradation compounds and methods of use” (Icahn School of Medicine at Mount Sinai, priority 2020, dated 2024):

How the values were obtained:
HT-29 cells = experiment: MTT cell viability assay, HT-29; format: cell-based
Method: MTT assay was conducted for HT-29 cells after 3 d treatment with indicated compounds with serial dilutions.
MTT assay was conducted for HT-29 (A) and SK-MEL-28 (B) cells after 3 d treatment with DMSO or indicated compounds with serial dilutions. Clonogenic assay was performed in HT-29 (C) and SK-MEL-28 (D) cells for 14 d treatment with DMSO or indicated compounds with 10, 30 and 100 nM, in duplicate, respectively. Cells were then stained by crystal violet.
HT-29 or SK-MEL-28 cells (300 cells per well) were seeded in 12-well plates. After 20 h, cells were treated with DMSO or indicated concentrations of compounds in duplicate for two weeks. Medium containing indicated compounds was changed every 3 days. Cells were then fixed and stained with the solution containing 6% (v/v) glutaraldehyde (G5882, Sigma-Aldrich) and 0.5% (w/v) crystal violet for 1 h. To remove the background color, the plates with stained cells were immersed in running water until clear colonies were observed. The plates were dried at RT. The staining images were obtained with Epson Perfection V600 Photo.

SK-MEL-28 cells = experiment: MTT cell viability assay, SK-MEL-28; format: cell-based; settings: MTT 3 d, clonogenic assay 14 d at 10, 30 and 100 nM
Method: Clonogenic assay was performed in HT-29 (C) and SK-MEL-28 (D) cells for 14 d treatment with DMSO or indicated compounds with 10, 30 and 100 nM, in duplicate, respectively. Cells were then stained by crystal violet.
Cells (2000 cells per well) were seeded into 96-well microplates. After 20 h, cells were treated with 0.1% DMSO or indicated serial dilutions of compounds in duplicate or triplicate for 3 days. Cell viability was tested using MTT (M6494, Thermo Fisher Scientific) or WST-8 reagent (CK04, Dojindo). Briefly, 12 mM MTT was prepared in PBS or WST-8 reagent was warmed up to room temperature. 20 μL MTT or CCK-8 was then added to each well and the plates were kept in incubator at 37° C. for 3 h in the dark. For the WST-8 assay, signal was obtained after the incubation. For the MTT assay, cell medium was replaced with 200 μL of DMSO after the incubation, and then cell plates were kept at 37° C. for another 30 min. Absorbance signals for MTT and WST-8 were read at 540 nm and 450 nm respectively, with 690 nm as reference performed with Infinite F PLEX plate reader (TECAN, Morrisville, NC, USA). GI50 values were analyzed using GraphPad Prism 8 from the data of at least three independent experiments.
HT-29 or SK-MEL-28 cells (300 cells per well) were seeded in 12-well plates. After 20 h, cells were treated with DMSO or indicated concentrations of compounds in duplicate for two weeks. […]

MEK1 = biological target: T1, MEK1 (Homo sapiens, UniProt Q02750); experiment: HotSpot kinase inhibition assay, MEK1; format: biochemical; settings: MEK1 100 nM, ERK K52R substrate, 33P-ATP, normalized with DMSO
T1 construct: purchased Thermo Fisher Scientific PV3303
T1 sequence (Q02750 whole entry): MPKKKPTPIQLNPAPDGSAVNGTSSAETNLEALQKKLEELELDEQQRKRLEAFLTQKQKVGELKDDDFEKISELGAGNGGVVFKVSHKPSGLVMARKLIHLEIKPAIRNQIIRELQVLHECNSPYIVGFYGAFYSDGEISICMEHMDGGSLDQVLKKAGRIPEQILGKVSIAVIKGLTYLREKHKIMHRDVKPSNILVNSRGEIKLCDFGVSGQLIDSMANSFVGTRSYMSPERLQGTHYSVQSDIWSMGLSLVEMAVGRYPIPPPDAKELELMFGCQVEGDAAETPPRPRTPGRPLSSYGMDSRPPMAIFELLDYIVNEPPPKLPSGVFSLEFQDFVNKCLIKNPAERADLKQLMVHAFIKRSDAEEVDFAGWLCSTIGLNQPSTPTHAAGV

MEK2 = biological target: T2, MEK2 (Homo sapiens, UniProt P36507); experiment: HotSpot kinase inhibition assay, MEK2; format: biochemical; settings: MEK2 150 nM, ERK K52R substrate, 33P-ATP, normalized with DMSO
T2 construct: purchased Thermo Fisher Scientific PV3615
T2 sequence (P36507 whole entry): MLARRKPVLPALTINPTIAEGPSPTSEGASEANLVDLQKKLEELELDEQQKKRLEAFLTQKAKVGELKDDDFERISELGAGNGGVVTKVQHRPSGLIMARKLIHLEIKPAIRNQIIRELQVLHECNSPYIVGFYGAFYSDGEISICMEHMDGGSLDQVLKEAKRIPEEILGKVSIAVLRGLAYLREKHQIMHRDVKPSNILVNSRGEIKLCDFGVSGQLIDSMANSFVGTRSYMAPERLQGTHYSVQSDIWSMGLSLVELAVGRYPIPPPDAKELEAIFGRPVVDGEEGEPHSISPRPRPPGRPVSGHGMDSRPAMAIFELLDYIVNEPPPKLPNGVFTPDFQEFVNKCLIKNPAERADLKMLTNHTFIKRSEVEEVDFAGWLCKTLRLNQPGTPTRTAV

MEK1/2 [1] = experiment: Western blot of MEK1/2 protein levels in HT-29 cells; format: cell-based
Method: Compound concentrations are 0.3 μM, 1 μM and 3 μM.
(§1) The indicated protein levels were determined by Western blots.
(§2) The sample was centrifuged at 12,000 g for 10 min at 4° C. to get supernatant as cell lysate. Protein concentrations were quantified using Pierce rapid gold BCA protein assay kit.

pMEK and pERK [2] = experiment: Western blot of MEK and ERK phosphorylation in HT-29 cells; format: cell-based
MEK1/2 [3] = experiment: Rescue experiments (pretreatment) in HT-29 cells, western blot; format: cell-based; settings: 2 h pretreatment with PD0325901 (1 μM), MG-132 (3 μM), MLN4924 (1 μM) or VH 032 (10 μM), then 10 h with 0.3 μM CPD-031
Method: The cells were incubated for another 8 h.
as §2

MEK1/2 [4] = experiment: Rescue experiments (pretreatment) in SK-MEL-28 cells, western blot; format: cell-based; settings: 2 h pretreatment with PD0325901 (1 μM), MG-132 (3 μM), MLN4924 (1 μM) or VH 032 (10 μM), then 10 h with 0.3 μM CPD-031
MEK1 and MEK2 proteins = experiment: Global proteome analysis of HT-29 cells; format: cell-based, human; settings: 10 h, 0.1 μM, versus 0.1% DMSO
Method: […] […] P values were calculated from the data of two technical replicates. (A) DMSO compared to CPD-031 treated samples; (B) CPD-034 compared to CPD-031 treated samples; (C) DMSO compared to CPD-034 treated samples.
Proteins outside the significance lines were labeled with pink or purple color (FDR=0.05, S0=1). P values were calculated from the data of two technical replicates.
Protein Extraction and Digestion. Cells with indicated treatments were harvested and lysed in lysis buffer (6 M guanidine hydrochloride, 100 mM Tris-HCl pH 8.0). Sonication (5 s on, 5 s off, 2×30 s) was performed to shear genome DNA. Lysate were centrifugated for 30 min at 3,500 g at 4° C. and the supernatant were transferred to a clean tube, diluted 50% with Milli-Q H2O, then precipitated by addition of cold acetone (four times the original volume), and placed at −20° C. overnight. Precipitated proteins were brought down at 20,000 g at 4° C. for 10 min, and washed with cold acetone after discarding the supernatant. The pellet was air-dried at RT for 5 min and solubilized with 50 mM Tris-HCl (PH 8.0), 8 M urea. Protein concentration was determined (BCA assay) and protein was reduced with 5 mM DTT (dithiothreitol), alkylated with 15 mM IAA (iodoacetamide) in the dark, then diluted with buffer 25 mM Tris (pH 8.0) and 1 mM CaCl2 (three times the original volume). The final urea concentration is 2 M. Trypsin was added into protein solution with 1:100 ratio (trypsin:protein), and digested 12-16 h or overnight at RT.
Mass Spectrometry Analysis. Peptides were cleaned up by C18 stage tips and the concentration was determined (Peptide assay, 23275, Thermo Fisher Scientific). The clean peptides were dissolved in 0.1% formic acid and analyzed on a Q-Exactive HF-X coupled with an Easy nanoLC 1200 (Thermo Fisher Scientific, San Jose, CA). 0.5 μg of peptides were loaded onto an Acclain PepMap RSLC C18 Column (250 mm×75 μm ID, C18, 2 μm, Thermo Fisher Scientific). […] A linear gradient of 5 to 30% buffer B over 110 min was executed at a 300 nl/min flow rate followed a ramp to 100% B in 5 min, and 15-min wash with 100% B, where buffer A was aqueous 0.1% formic acid, and buffer B was 80% acetonitrile and 0.1% formic acid.
LC-MS experiments were performed in a data-dependent mode with full MS (externally calibrated to a mass accuracy of <5 ppm and a resolution of 60,000 at m/z 200) followed by high energy collision-activated dissociation-MS/MS of the top 20 most intense ions with a resolution of 15,000 at m/z 200. High energy collision-activated dissociation-MS/MS was used to dissociate peptides at a normalized collision energy of 27 eV in the presence of nitrogen bath gas atoms. Dynamic exclusion was 30.0 seconds. Each sample was subjected to two technical LC-MS replicates.
MS Data Analysis. Mass spectra processing and peptide identification were performed on the Andromeda search engine in MaxQuant software (Version 1.6.0.16) against the human UniProt database (UP000005640). All searches were conducted with a defined modification of cysteine carbamidomethylation, with methionine oxidation and protein amino-terminal acetylation as dynamic modifications. Peptides were confidently identified using a target-decoy approach with a peptide false discovery rate (FDR) of 1% and a protein FDR of 1%. A minimum peptide length of 7 amino acids was required, maximally two missed cleavages were allowed, initial mass deviation for precursor ion was up to 7 ppm, and the maximum allowed mass deviation for fragment ions was 0.5 Da. Data processing and statistical analysis were performed on Perseus (Version 1.6.0.7). Protein quantitation was performed on duplicate runs, and a two-sample t-test statistics was used to report statistically significant expression fold-changes.

MEK1/2 [5] = experiment: Western blot of MEK1/2 protein levels in SK-MEL-28 cells
Method: as §1, §2

pMEK and pERK [6] = experiment: Western blot of MEK and ERK phosphorylation in SK-MEL-28 cells
[7] = HT-29 cells, 0.1 μM or 0.3 μM, harvested at indicated time points
[8] = HT-29 cells, 0.1, 0.3, or 1 μM, 24 h
[9] = HT-29 cells, serial dilution, 24 h, western blot
[10] = SK-MEL-28 cells, 0.1 μM or 0.3 μM, harvested at indicated time points
[11] = SK-MEL-28 cells, 0.1, 0.3, or 1 μM, 24 h
[12] = SK-MEL-28 cells, serial dilution, 24 h, western blot

Cc1ncsc1-c1ccc([C@H](C)NC(=O)[C@@H]2C[C@@H](O)CN2C(=O)[C@@H](NC(=O)CCCCCCCCCCNCCCONC(=O)c2ccc(F)c(F)c2Nc2ccc(I)cc2F)C(C)(C)C)cc1 [CPD-031, (2S,4R)-1-((S)-20-(tert-butyl)-1-(3,4-difluoro-2-((2-fluoro-4-iodophenyl)amino)phenyl)-1,18-dioxo-3-oxa-2,7,19-triazahenicosan-21-oyl)-4-hydroxy-N—((S)-1-(4-(4-methylthiazol-5-yl)phenyl)ethyl)pyrrolidine-2-carboxamide]
selectively degraded: protein levels in the global proteomic study (MEK1 and MEK2 proteins)
significantly impaired: potency at degradation of MEK1 and MEK2 and inhibition of MEK phosphorylation after pretreatment (MEK1/2 [3]) | potency at degradation of MEK1 and MEK2 and inhibition of MEK phosphorylation after pretreatment (MEK1/2 [4])
0.13 ± 0.04 µM: GI50 (HT-29 cells; Homo sapiens, 72 h, MTT assay, 3 d treatment, serial dilutions)
inhibited: MEK1 kinase activity (MEK1) | MEK2 kinase activity (MEK2) | phosphorylation of MEK and ERK / pERK signaling, time-dependent (pMEK and pERK [2]; [7]) | phosphorylation of MEK and ERK proteins, concentration-dependent (pMEK and pERK [2]; [9]) | phosphorylation of MEK and ERK / pERK signaling, time-dependent (pMEK and pERK [6]; [10]) | phosphorylation of MEK and ERK proteins, concentration-dependent (pMEK and pERK [6]; [12])
reduced: MEK1 and MEK2 protein levels, time-dependent (MEK1/2 [1]; [7]) | MEK1 and MEK2 protein levels (MEK1/2 [1]; [8]) | MEK1 and MEK2 protein levels, concentration-dependent (MEK1/2 [1]; [9]) | MEK1 and MEK2 protein levels, time-dependent (MEK1/2 [5]; [10]) | MEK1 and MEK2 protein levels (MEK1/2 [5]; [11]) | MEK1 and MEK2 protein levels, concentration-dependent (MEK1/2 [5]; [12])
more potent: inhibition of the growth of cells compared with CPD-034 (HT-29 cells; MTT 3 d, clonogenic assay 14 d at 10, 30 and 100 nM) | inhibition of the growth of cells compared with CPD-034 (SK-MEL-28 cells) | inhibition of MEK and ERK phosphorylation compared with CPD-034 (pMEK and pERK [2]; [8]) | inhibition of MEK and ERK phosphorylation compared with CPD-034 (pMEK and pERK [6]; [11])
